The values that follow are results of earlier work, collected in US6579851B2, “Effects of glucagon-like peptide-1 (7-36) on antro-pyloro-duodenal motility” (Amylin Pharmaceuticals, Inc., priority 2000, dated 2003).

One series concerns gastroduodenal motility. Conditions: cited from earlier work.
For series [1] the following is noted: in vivo; cited from earlier work.

For the substance Glucagon, the “Effect on contractions in the antrum” value in the series with gastroduodenal motility (doses as high as 2 mg) is on record as “does not reduce contractions in the antrum”. The “Minimally effective dose for reduction in gastroduodenal motility” value in the series on gastroduodenal motility (in vivo) is on record as 0.5 mg. Besides, the “Dose at which side effects (nausea and vomiting) can appear” value in series [1] is on record as 1 mg.
